Data: patent US20230000876A1, “TREATING CANCERS WITH A CYCLIN-DEPENDENT KINASE INHIBITOR” (Nuvation Bio Inc., priority 2021, published 2023)
Like-named read-outs stand apart in the source and are kept apart here.

Test system: MCF-7 tumors
Type: in vivo
Conditions: for T/C / TGI: PG-D37
Method: The in vivo anti-tumor efficacy of the compound of formula (I) either alone or in combination with fulvestrant on MCF-7 breast tumor model on female Balb/c nude mice was assessed. MCF-7 cells are a breast cancer cell line that is HR+HER2−. See Booms et al., (2019) Cancer Epidemiol Biomarkers Prev 28(10); 1735-1745, which is hereby incorporated by reference.
The study was in two parts. The first part was designed to measure tumor growth inhibition (TGI). The second part was used to measure pharmacokinetic and pharmacodynamic (PKPD) parameters. In the studies, the compound of formula (I) was dosed orally (po) and fulvestrant was dosed subcutaneously. […]
The MCF-7 tumor cells were maintained in vitro in MEM supplemented with 10% heat inactivated fetal bovine serum at 37° C. in an atmosphere of 5% CO2 in air. The tumor cells were routinely subcultured twice weekly. The cells growing in an exponential growth phase were harvested and counted for tumor inoculation.
Each mouse was inoculated subcutaneously at the right flank with MCF-7 (10*10^6) cells in 0.2 mL of PBS mixed with Matrigel (50:50) for tumor development. 17β-Estradiol (0.36 mg, 60-day release) pellets (Innovative Research of America Cat. No.: SE-121, pellet size: 3.0 mm) were implanted 2 days before cell inoculation.
In TGI part, the treatments was started on day 7 after cell inoculation when the average tumor volume reaches 173 mm^3. 72 mice were selected and assigned into 9 groups. The testing articles were administrated to the mice according to Table 1.
For TGI part, the major endpoint was to see if the tumor growth could be delayed or mice could be cured. Tumor size was measured twice weekly in two dimensions using a caliper, and the volume was expressed in mm^3 using the formula: V=0.5 a×b^2 where a and b are the long and short diameters of the tumor, respectively. The tumor sizes are then used for the calculation of T/C and TGI values.
The T/C value (in percent) is an indication of antitumor effectiveness; T and C are the mean volume of the treated and control groups, respectively, on a given day.
TGI was calculated for each group using the formula: TGI (%)=[1−(Ti−T0)/(Vi−V0)]×100; Ti is the average tumor volume of a treatment group on PG-Di, T0 is the average tumor volume of the treatment group on the day of treatment start, Vi is the average tumor volume of the vehicle control group on the same day with Ti, and V0 is the average tumor volume of the vehicle group on the day of treatment start.
For comparison among of tumor volume of groups 2-9 and group 1, a one-way ANOVA was performed. All the analysis were conducted using GraphPad Prism software. p<0.05 was considered to be statistically significant.

CC(C)N1CCOc2c(F)cc(-c3nc(Nc4ccc(C5CCN(C)CC5)cn4)ncc3F)cc21 [Compound (I), 5-fluoro-4-(8-fluoro-4-isopropyl-3,4-dihydro-2H-benzo[b][1,4]oxazin-6-yl)-N-(5-(1-methylpiperidin-4-yl)pyridin-2-yl)pyrimidin-2-amine]
Tumor volume (mean ± SEM) (10 mg/kg PO QD, day 0): 173 ± 12 mm^3
Tumor volume (mean ± SEM) (10 mg/kg PO QD, day 3): 195 ± 14 mm^3
Tumor volume (mean ± SEM) (10 mg/kg PO QD, day 6): 188 ± 25 mm^3
Tumor volume (mean ± SEM) (10 mg/kg PO QD, day 9): 185 ± 15 mm^3
Tumor volume (mean ± SEM) (10 mg/kg PO QD, day 13): 179 ± 21 mm^3
Tumor volume (mean ± SEM) (10 mg/kg PO QD, day 16): 187 ± 22 mm^3
Tumor volume (mean ± SEM) (10 mg/kg PO QD, day 20): 228 ± 36 mm^3
Tumor volume (mean ± SEM) (10 mg/kg PO QD, day 23): 268 ± 37 mm^3
Tumor volume (mean ± SEM) (10 mg/kg PO QD, day 27): 310 ± 56 mm^3
Tumor volume (mean ± SEM) (10 mg/kg PO QD, day 30): 358 ± 60 mm^3
Tumor volume (mean ± SEM) (10 mg/kg PO QD, day 34): 446 ± 93 mm^3
Tumor volume (mean ± SEM) (10 mg/kg PO QD, day 37): 505 ± 116 mm^3
Tumor volume (mean ± SEM) (10 mg/kg PO QD, day 41): 530 ± 113 mm^3
Tumor volume (mean ± SEM) (10 mg/kg PO QD, day 44): 468 ± 99 mm^3
Tumor volume (mean ± SEM) (10 mg/kg PO QD, day 48): 472 ± 120 mm^3
T/C (10 mg/kg QD): 25.18%
TGI (10 mg/kg QD): 81.88%
Tumor volume (mean ± SEM) (30 mg/kg PO QD, day 0): 173 ± 11 mm^3
Tumor volume (mean ± SEM) (30 mg/kg PO QD, day 3): 192 ± 16 mm^3
Tumor volume (mean ± SEM) (30 mg/kg PO QD, day 6): 151 ± 24 mm^3
Tumor volume (mean ± SEM) (30 mg/kg PO QD, day 9): 153 ± 19 mm^3
Tumor volume (mean ± SEM) (30 mg/kg PO QD, day 13): 147 ± 17 mm^3
Tumor volume (mean ± SEM) (30 mg/kg PO QD, day 16): 154 ± 18 mm^3
Tumor volume (mean ± SEM) (30 mg/kg PO QD, day 20): 159 ± 21 mm^3
Tumor volume (mean ± SEM) (30 mg/kg PO QD, day 23): 175 ± 23 mm^3
Tumor volume (mean ± SEM) (30 mg/kg PO QD, day 27): 168 ± 25 mm^3
Tumor volume (mean ± SEM) (30 mg/kg PO QD, day 30): 186 ± 28 mm^3
Tumor volume (mean ± SEM) (30 mg/kg PO QD, day 34): 193 ± 34 mm^3
Tumor volume (mean ± SEM) (30 mg/kg PO QD, day 37): 227 ± 41 mm^3
Tumor volume (mean ± SEM) (30 mg/kg PO QD, day 41): 228 ± 51 mm^3
Tumor volume (mean ± SEM) (30 mg/kg PO QD, day 44): 234 ± 52 mm^3
Tumor volume (mean ± SEM) (30 mg/kg PO QD, day 48): 206 ± 39 mm^3
T/C (30 mg/kg QD): 11.32%
TGI (30 mg/kg QD): 97.06%
Toxicity (body weight as indirect measurement) (MCF-7 tumor-bearing mice, 10 or 30 mg/kg PO QD, alone or with fulvestrant, 49 days): not toxic
